Experimental data as given in patent publication US10555987B2, “GHRH agonists for the treatment of ischemic disorders” (UNIVERSITY OF MIAMI, priority 2012, dated 2020).
“Also recorded” adds a separate entry of the source. Non-standard residues stand in square brackets, D forms with d. Residues, ends and D or L forms follow the SMILES beside them. *: point of attachment. Phe(F5) = N[C@@H](Cc1c(F)c(F)c(F)c(F)c1F)C(=O)O; Desaminotyrosyl = O=C(CCc1ccc(O)cc1)*; NMeY = CN[C@@H](Cc1ccc(O)cc1)C(=O)O; Agmatine = N=C(N)NCCCCN*; Nle = CCCC[C@H](N)C(=O)O; Orn = NCCC[C@H](N)C(=O)O; Abu = CC[C@H](N)C(=O)O; GABA = NCCCC(=O)O

How the values were obtained:
[1] = system: myocardial infarction (Fischer 344 rats); assay: Echocardiography in rat MI model, treatment from 2 hours post-surgery (Example 14); type: in vivo; details: echocardiographic measurements at day 2 post-MI
Description: (§1) MI was induced in female 6-month-old Fischer 344 rats by permanent ligation of left ventricular (LV) anterior descending coronary artery. Animals were randomly assigned to receive placebo or one of the following GHRH agonists (MR-356, MR-361, MR-367, MR-403, MR-404, MR-409 and MR-502) starting 2 hours post-surgery. All treatment (50 μg/kg) was given subcutaneously twice daily for 4 weeks. The Institutional Animal Care and Use committee of the University of Miami approved all protocols and experimental procedures.
Longitudinal evaluation of LV remodeling was obtained by echocardiographic measurements between baseline and 4 weeks following MI. Echocardiographic assessments were performed in anesthetized rats (1-2% isoflurane inhalation) using a Vevo-770 echocardiogram (Visual Sonics Inc., Toronto, Ontario, Canada) equipped with 25 MHz transducer. Cardiac dimensions were recorded from M-mode images using averaged measurements from 3 to 5 consecutive cardiac cycles. LV end-diastolic and end-systolic volumes and ejection fraction (EF) were calculated from bi-dimensional long-axis parasternal views taken through the infarcted area. All images were analyzed using Vevo 770 3.0.0 software (Visual Sonics).

GH release [2] = assay: GH releasing potency in vivo, intravenous administration (Example 14, Table 13); set-up: species or system rat; details: i.v.; for Serum GH level at selected time after injection (ng/ml), 0 min / Serum GH level at selected time after injection (ng/ml), 5 min / Serum GH level at selected time after injection (ng/ml), 15 min: dose 1 μg/kg, mean ± SEM
Description: Male Sprague-Dawley rats, weighing 200-250 g, were purchased from Charles River Laboratory (Wilmington, Mass.) and used for experiments. All animal procedures were approved by the Veterans Affairs Animal Care and Use Committee and were conducted in accordance with additional institutional guidelines as well. Briefly, groups of 5-6 animals were used in each experiment. The rats were anesthetized with 50 mg/kg of sodium pentobarbital (Nembutal, Lundbeck Inc., Deerfield, Ill.). Twenty min after inducing anesthesia, GHRH(1-29)NH2, JI-38, or new analogs were injected into the animals intravenously (i.v.) or subcutaneously (s.c.). The peptides were dissolved in 0.01 M acetic acid to get 1 μg/μl stock solution, and then diluted with 5% mannitol. Control rats received 5% mannitol only. Blood samples were collected from the jugular vein at selected times and were used for serum preparation. Concentrations of GH in rat sera were determined by ELISA. The relative potencies of tested peptides were calculated using GHRH(1-29)NH2 and JI-38 for comparison, whose potency was defined as 1. The equivalent dosage of GHRH(1-29)NH2 to reach the same level of serum growth hormone release after injection of the specific tested peptide was determined from a GHRH(1-29)NH2 standard curve using Origin 6.0 software. […] Serum GH was determined using the rat Growth Hormone ELISA kit (ALPCO Diagnostics, Mill Valley, Calif.) according to the manufacturer's instruction. Absorbance at 405 nm was measured by a Victor 3 Multi-label Counter (Perkin-Elmer, Waltham, Md.).

GH release [3] = assay: In vivo endocrine activity, GH release after intravenous administration (Table 8); details: rat; for Stimulation of growth hormone levels after intravenous administration (in words): i.v.; for GH releasing potency in vivo relative to JI-38 (=1): i.v. injection
[4] = system: myocardial infarction (Fisher-344 rats); assay: Echocardiography in rat myocardial infarction model, treatment from 4 weeks post-MI (Example 13); type: in vivo; details: mean ± SEM
Description: (§2) Myocardial infarction (MI) was induced by permanent ligation of the left coronary artery in female 6-month-old Fisher-344 rats. Animals were randomly assigned to receive placebo (DMSO+propylene glycol) or one of the GHRH-agonists (JI-38, MR-356/P-20356, MR-409/P-27409, all 50 μg/kg), starting 4 weeks post-MI. All treatment was given subcutaneously twice daily for 4 weeks.
Echocardiographic measurements were obtained at baseline, 2 days, 1, 2 and 4 weeks. Echocardiographic assessments were performed in anesthetized rats (2% isoflurane inhalation) using a Vevo-770 echocardiogram (Visual Sonics Inc., Toronto, Ontario, Canada) equipped with a 17.5-MHz transducer. Cardiac dimensions: LV end diastolic (LVEDD), end systolic (LVESD) diameters and fractional shortening (FS) were recorded from M-mode images using averaged measurements from 3 to 5 consecutive cardiac cycles according to the American Society of Echocardiography. Ejection fraction (EF) was calculated from bi-dimensional long-axis parasternal views taken through the infarcted area. All images were analyzed using Vevo 770 3.0.0 software (Visual Sonics Inc., Toronto, Ontario, Canada).

[5] = system: myocardial infarction (Fisher-344 rats); assay: Immunostaining of heart tissue (pH3, c-kit, arterioles), rat MI model (Example 13); type: in vivo
Description: as §2
(§3) Paraffin sections were deparaffinized and rehydrated by immersion in xylene followed by a graded series of ethanol. Antigen retrieval was performed by a heat-induced method with citrate buffer (Dako, Carpinteria, Calif.). After blocking with 10% normal donkey serum, sections were incubated with a primary antibody at 37° C. for 1 hour, followed by application of secondary antibody. Omission of the primary antibodies on parallel sections was used as negative control. Nuclei were counterstained with DAPI (Invitrogen, Carlsbad, Calif.). The total numbers of positively-stained cells (c-kit, CD45, phospho-histone H3 [pH3]) were quantified per slide to calculate the number of cells per section on each sample. Morphometric analysis was performed using Adobe Photoshop CS3 (San Jose, Calif.).
Heart sections were co-stained with isolectin (endothelial cell marker) and vascular smooth muscle (SMA22a) to identify arterioles which play a crucial role in cardiac repair. […] An inverse correlation between number of arterioles and infarct size was observed (FIG. 5C).

[6] = system: myocardial infarction (Fisher-344 rats); assay: Morphometric analysis of infarct size, rat MI model (Example 13); type: in vivo; details: 50 μg/kg s.c. twice daily for 4 weeks; mean ± SEM
Description: as §2
Rat hearts were processed using routine histological procedures. Samples were fixed in formalin.
as §3

[7] = system: myocardial infarction (Fischer 344 rats); assay: Morphometric analysis, percentage of infarcted myocardium (Example 14); type: in vivo, rat; details: vs. placebo, FIG. 8; listed as MR-409
Description: as §1
Slides were prepared with H&E and Masson's trichrome stain to assess cardiac structure and the presence and extent of myocardial scar, respectively. The percentage of infarcted myocardium was calculated.

[8] = 50 μg/kg s.c. twice daily for 4 weeks, mean ± SEM

SMILES | Serum GH level at selected time after injection (ng/ml), 0 min (GH release [2]) | Serum GH level at selected time after injection (ng/ml), 5 min (GH release [2]; 5 min) | Serum GH level at selected time after injection (ng/ml), 15 min (GH release [2]; 15 min) | Stimulation of growth hormone levels after intravenous administration (in words) (GH release [3]) | GH releasing potency in vivo relative to JI-38 (=1) (GH release [3]; 15 min after) | GH releasing potency in vivo relative to JI-38 (=1) (GH release [3]; 30 min after) | further results
CCCC[C@H](NC(=O)[C@@H](NC(=O)[C@H](CC(=O)O)NC(=O)[C@H](CCC(N)=O)NC(=O)[C@H](CC(C)C)NC(=O)[C@H](CC(C)C)NC(=O)[C@H](CCCN)NC(=O)[C@H](CCCNC(=N)N)NC(=O)[C@H](C)NC(=O)[C@H](CO)NC(=O)[C@H](CC(C)C)NC(=O)[C@H](CCC(N)=O)NC(=O)[C@H](CC)NC(=O)[C@H](CC(C)C)NC(=O)[C@@H](NC(=O)[C@H](CCCN)NC(=O)[C@H](CCCNC(=N)N)NC(=O)[C@H](Cc1ccc(O)cc1)NC(=O)[C@H](CO)NC(=O)[C@H](CCC(N)=O)NC(=O)[C@@H](NC(=O)[C@H](Cc1ccccc1)NC(=O)[C@@H](NC(=O)[C@H](C)NC(=O)[C@H](CC(=O)O)NC(=O)[C@@H](C)NC(=O)[C@H](Cc1ccc(O)cc1)NC)[C@@H](C)CC)[C@@H](C)O)C(C)C)[C@@H](C)CC)C(=O)N[C@@H](CC(=O)O)C(=O)NCCCCNC(=N)N [Peptide P-20361, [N—Me-Tyr^1, D-Ala^2, Gln^8, Orn^12, Abu^15, Orn^21, Nle^27, Asp^28, Agm^29] hGHRH (1-29)NH2] (H-[NMeY][dA]DAIFTQSYR[Orn]VL[Abu]QLSAR[Orn]LLQDI[Nle]D-Agmatine) |  |  |  |  |  |  | EF at day 2 post-MI [1]: slightly better preserved
CCCC[C@H](NC(=O)[C@@H](NC(=O)[C@H](CC(=O)O)NC(=O)[C@H](CCC(N)=O)NC(=O)[C@H](CC(C)C)NC(=O)[C@H](CC(C)C)NC(=O)[C@H](CCCN)NC(=O)[C@H](CCCNC(=N)N)NC(=O)[C@H](C)NC(=O)[C@H](CO)NC(=O)[C@H](CC(C)C)NC(=O)[C@H](CCC(N)=O)NC(=O)[C@H](CC)NC(=O)[C@H](CC(C)C)NC(=O)[C@@H](NC(=O)[C@H](CCCN)NC(=O)[C@H](CCCNC(=N)N)NC(=O)[C@H](Cc1ccc(O)cc1)NC(=O)[C@H](CO)NC(=O)[C@H](CC(N)=O)NC(=O)[C@@H](NC(=O)[C@H](Cc1c(F)c(F)c(F)c(F)c1F)NC(=O)[C@@H](NC(=O)[C@H](C)NC(=O)[C@H](CC(=O)O)NC(=O)[C@@H](C)NC(=O)CCc1ccc(O)cc1)[C@@H](C)CC)[C@@H](C)O)C(C)C)[C@@H](C)CC)C(=O)N[C@@H](CO)C(=O)N[C@@H](CCCNC(=N)N)C(=O)NCCCC(N)=O [Peptide P-25502, [Dat^1, D-Ala^2, Fpa5^6, Orn^12, Abu^15, Orn^21, Nle^27, Gab^30]hGHRH(1-30)NH2] (Desaminotyrosyl-[dA]DAI[Phe(F5)]TNSYR[Orn]VL[Abu]QLSAR[Orn]LLQDI[Nle]SR[GABA]-NH2) | 59.9 ± 15.9 ng/mL | 1253 ± 185 ng/mL | 575 ± 20.9 ng/mL | most potent | 5.40 | 5.83 | GH-releasing potency after intravenous administration (in words) (GH release [2]): highest potency for GH release; GH releasing potency in vivo relative to JI-38 (=1) (GH release [3]; 5 min after): 6.76
CCCC[C@H](NC(=O)[C@@H](NC(=O)[C@H](CC(=O)O)NC(=O)[C@H](CCC(N)=O)NC(=O)[C@H](CC(C)C)NC(=O)[C@H](CC(C)C)NC(=O)[C@H](CCCN)NC(=O)[C@H](CCCNC(=N)N)NC(=O)[C@H](C)NC(=O)[C@H](CO)NC(=O)[C@H](CC(C)C)NC(=O)[C@H](CCC(N)=O)NC(=O)[C@H](CC)NC(=O)[C@H](CC(C)C)NC(=O)[C@@H](NC(=O)[C@H](CCCN)NC(=O)[C@H](CCCNC(=N)N)NC(=O)[C@H](Cc1ccc(O)cc1)NC(=O)[C@H](CO)NC(=O)[C@H](CCC(N)=O)NC(=O)[C@@H](NC(=O)[C@H](Cc1ccccc1)NC(=O)[C@@H](NC(=O)[C@H](C)NC(=O)[C@H](CC(=O)O)NC(=O)[C@@H](C)NC(=O)[C@H](Cc1ccc(O)cc1)NC)[C@@H](C)CC)[C@@H](C)O)C(C)C)[C@@H](C)CC)C(=O)N[C@@H](CC(=O)O)C(=O)N[C@@H](CCCNC(=N)N)C(=O)NC [Peptide P-27403, [N—Me-Tyr^1, D-Ala^2, Gln^8, Orn^12, Abu^15, Orn^21, Nle^27, Asp^28]hGHRH(1-29)NH—CH3] (H-[NMeY][dA]DAIFTQSYR[Orn]VL[Abu]QLSAR[Orn]LLQDI[Nle]DR-NHMe) | 47.7 ± 4.1 ng/mL | 642 ± 29.7 ng/mL | 268 ± 21.1 ng/mL | most potent | 5.01 | 4.01 | Relative potency, 5 min (GH release [2]; 5 min, JI-38 = 1): 1.19; Relative potency, 15 min (GH release [2]; 15 min, JI-38 = 1): 1.35
CCCC[C@H](NC(=O)[C@@H](NC(=O)[C@H](CC(=O)O)NC(=O)[C@H](CCC(N)=O)NC(=O)[C@H](CC(C)C)NC(=O)[C@H](CC(C)C)NC(=O)[C@H](CCCN)NC(=O)[C@H](CCCNC(=N)N)NC(=O)[C@H](C)NC(=O)[C@H](CO)NC(=O)[C@H](CC(C)C)NC(=O)[C@H](CCC(N)=O)NC(=O)[C@H](CC)NC(=O)[C@H](CC(C)C)NC(=O)[C@@H](NC(=O)[C@H](CCCN)NC(=O)[C@H](CCCNC(=N)N)NC(=O)[C@H](Cc1ccc(O)cc1)NC(=O)[C@H](CO)NC(=O)[C@H](CC(N)=O)NC(=O)[C@@H](NC(=O)[C@H](Cc1ccccc1)NC(=O)[C@@H](NC(=O)[C@H](C)NC(=O)[C@H](CC(=O)O)NC(=O)[C@@H](C)NC(=O)[C@H](Cc1ccc(O)cc1)NC)[C@@H](C)CC)[C@@H](C)O)C(C)C)[C@@H](C)CC)C(=O)N[C@@H](CC(=O)O)C(=O)N[C@@H](CCCNC(=N)N)C(=O)NC [Peptide P-27409, [N—Me-Tyr^1, D-Ala^2, Orn^12, Abu^15, Orn^21, Nle^27, Asp^28]hGHRH(1-29)NH—CH3] (H-[NMeY][dA]DAIFTNSYR[Orn]VL[Abu]QLSAR[Orn]LLQDI[Nle]DR-NHMe) |  |  |  |  |  |  | EF (4 Weeks) ([4]; 50 μg/kg s.c. twice daily for 4 weeks): 48 ± 2.8 %; EF (Baseline) ([4]; ejection fraction at baseline): 90 ± 0.8%; c-kit (positive cells in the heart) [5, 8]: 68 ± 5.5; phospho H3 (positive cells in the heart) [5, 8]: 47 ± 5.8; number of arterioles ([5]; isolectin / SMA22a co-staining of heart sections): significantly increased; MI size (%) [6]: 42 ± 1.9 %; infarct size (MI %) [7]: significantly attenuated; also recorded: substantial reductions
